Source: the supplement of paper PMC10307832

Key:
Experiment in all cases: relative viability (nuclei count vs DMSO), 5 days (fraction); higher = more cells survive
Veliparib + Pictilisib = compound: C[C@]1(c2nc3c(C(N)=O)cccc3[nH]2)CCCN1 [Veliparib] + CS(=O)(=O)N1CCN(Cc2cc3nc(-c4cccc5[nH]ncc45)nc(N4CCOCC4)c3s2)CC1 [Pictilisib] (partner 1 µM)
How it was run: (§1)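 The day after seeding in 1536-well plates, lung cancer cell lines were treated by pin tool with a single drug, or with a fixed anchor-drug dose together with five library-drug doses (not always all listed) in √10 steps. After 5 days, a combined fix-and-stain solution (final 0.05% Triton X-100, 1% formaldehyde, 1 ug/ml Hoechst) was added. Nuclei counted on 4× images gave relative viability as treated counts over vehicle counts, reported as the median of duplicate plates.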

Veliparib + Foretinib = compound: C[C@]1(c2nc3c(C(N)=O)cccc3[nH]2)CCCN1 [Veliparib] + COc1cc2c(Oc3ccc(NC(=O)C4(C(=O)Nc5ccc(F)cc5)CC4)cc3F)ccnc2cc1OCCCN1CCOCC1 [Foretinib] (partner 0.25 µM)
How it was run: as §1

Veliparib + Linsitinib = compound: C[C@]1(c2nc3c(C(N)=O)cccc3[nH]2)CCCN1 [Veliparib] + C[C@]1(O)C[C@@H](c2nc(-c3ccc4ccc(-c5ccccc5)nc4c3)c3c(N)nccn32)C1 [Linsitinib] (partner 1 µM)
How it was run: as §1

Veliparib + Luminespib = compound: C[C@]1(c2nc3c(C(N)=O)cccc3[nH]2)CCCN1 [Veliparib] + CCNC(=O)c1noc(-c2cc(C(C)C)c(O)cc2O)c1-c1ccc(CN2CCOCC2)cc1 [Luminespib] (partner 0.01 µM)
How it was run: as §1

**Q.** How did the relative viability (Veliparib + Pictilisib; first compound 0.02 µM) turn out when SW 1573 was run?
**A.** The relative viability was 0.459.

**Q.** What about the relative viability (Veliparib + Pictilisib; first compound 0.06325 µM) of the same cell line?
**A.** Its relative viability is 0.587.

**Q.** What about the relative viability (Veliparib + Pictilisib; first compound 0.2 µM) of the same cell line?
**A.** The relative viability was 0.476.

**Q.** What about the relative viability (Veliparib + Pictilisib; first compound 0.6325 µM) of the same cell line?
**A.** Its relative viability is 0.497.

**Q.** And the relative viability (Veliparib + Pictilisib; first compound 2 µM)?
**A.** Its relative viability is 0.418.

**Q.** What about the relative viability (Veliparib + Foretinib; first compound 0.02 µM) of the same cell line?
**A.** Its relative viability is 0.881.

**Q.** What about the relative viability (Veliparib + Foretinib; first compound 0.06325 µM) of the same cell line?
**A.** The relative viability was 0.771.

**Q.** And the relative viability (Veliparib + Foretinib; first compound 0.2 µM)?
**A.** Its relative viability is 0.99.

**Q.** And the relative viability (Veliparib + Foretinib; first compound 0.6325 µM)?
**A.** The relative viability was 0.828.

**Q.** What about the relative viability (Veliparib + Foretinib; first compound 2 µM) of the same cell line?
**A.** The relative viability was 0.941.

**Q.** And the relative viability (Veliparib + Linsitinib; first compound 0.02 µM)?
**A.** The relative viability was 0.977.

**Q.** What about the relative viability (Veliparib + Linsitinib; first compound 0.06325 µM) of the same cell line?
**A.** Its relative viability is 0.845.

**Q.** And the relative viability (Veliparib + Linsitinib; first compound 0.2 µM)?
**A.** Its relative viability is 0.819.

**Q.** And the relative viability (Veliparib + Linsitinib; first compound 0.6325 µM)?
**A.** The relative viability was 0.767.

**Q.** And the relative viability (Veliparib + Linsitinib; first compound 2 µM)?
**A.** Its relative viability is 0.79.

**Q.** What about the relative viability (Veliparib + Luminespib; first compound 0.02 µM) of the same cell line?
**A.** Its relative viability is 0.169.

**Q.** And the relative viability (Veliparib + Luminespib; first compound 0.06325 µM)?
**A.** The relative viability was 0.204.

**Q.** And the relative viability (Veliparib + Luminespib; first compound 0.2 µM)?
**A.** The relative viability was 0.169.

**Q.** And the relative viability (Veliparib + Luminespib; first compound 0.6325 µM)?
**A.** Its relative viability is 0.254.

**Q.** What about the relative viability (Veliparib + Luminespib; first compound 2 µM) of the same cell line?
**A.** The relative viability was 0.214.
